The values that follow come from patent publication US20230119479A1, “A HISTONE DEACETYLASE INHIBITOR HAVING A NITROGEN-CONTAINING AROMATIC HETEROCYCLYL GROUP” (SHIONOGI & CO., LTD., priority 2019, published 2023).

Structures are written as SMILES.

The experiment deals with T1, HDAC2 Human recombinant C-terminal FLAG-tag (Homo sapiens, UniProt Q92769).
T1 construct: FLAG (C); purchased BPS Bioscience 50052
Nature of the experiment: Measurement of HDAC2 enzyme inhibitory activity (HTRF). In kind it is biochemical. The following applies: recombinant HDAC2, H3K9ac peptide, 3 hours room temperature; read-out: HDAC2 IC50. As to the method: Test Example 1: Measurement of HDAC2 Enzyme Inhibitory Activity
The HDAC2 enzyme inhibitory activity was measured by the method described in the following test example.
To each well of a 384-well plate (Corning, 4514), DMSO solution of the test compound was dispensed at 50 nL/well from a final concentration of 99 μM to 8 points (n=2) in the 3-fold dilution series using Echo555 (Beckman Coulter). 2.5 μl of 0.005 mg/mL recombinant enzyme HDAC2 (HDAC2 Human recombinant C-terminal FLAG-tag, BPS Bioscience, 50052) was added to each well, 2.5 μl of 0.6 μM H3K9ac peptide (Lys(Ac)9-Histone H3 (1-21)-GGK(Biotin), AnaSpec, 64361) was added, mixed, and reacted in a wet box at room temperature for 3 hours. 50 mM Tris HCL pH8.0, 137 mM sodium chloride, 2.7 mM potassium chloride, 1 mM magnesium chloride, 0.01% Tween20, and 0.1% BSA which were diluted with ultrapure water were used as a reaction buffer at this time. After the reaction, 5 μL of 10 μM SAHA (suberoylanilide hydroxamic acid) as a reaction terminator and the 5 μL of a mixture of 2.5 ng of H3K9me0 antibody (ActiveMotif, 61399) labeled in-house with europium cryptate (Cisbio, 65EUSABA) and 125 nM streptavidin-XL665 (Cisbio, 610SAXLA) as an HTRF (time-resolved fluorescence) reagent were added to each well, mixed, and allowed to stand in a wet box at room temperature for reaction. A detection buffer used at this time was 50 mM Tris HCL pH 8.0, 0.8 M potassium fluoride, and 0.1% BSA which were diluted with ultrapure water. After reacting for 2 hours or more, HTRF was measured using a multi-plate reader such as SpectraMax Paradigm (MOLECULAR DEVICE) or RUBYstar (BMG LABTECH). Ratio (665 nm/615-620 nm×10000) was calculated from the fluorescence values of two wavelengths, 615-620 nm and 665 nm, which were excited at 320-340 nm, and the energy transition was obtained.

T1 sequence (Q92769 whole entry): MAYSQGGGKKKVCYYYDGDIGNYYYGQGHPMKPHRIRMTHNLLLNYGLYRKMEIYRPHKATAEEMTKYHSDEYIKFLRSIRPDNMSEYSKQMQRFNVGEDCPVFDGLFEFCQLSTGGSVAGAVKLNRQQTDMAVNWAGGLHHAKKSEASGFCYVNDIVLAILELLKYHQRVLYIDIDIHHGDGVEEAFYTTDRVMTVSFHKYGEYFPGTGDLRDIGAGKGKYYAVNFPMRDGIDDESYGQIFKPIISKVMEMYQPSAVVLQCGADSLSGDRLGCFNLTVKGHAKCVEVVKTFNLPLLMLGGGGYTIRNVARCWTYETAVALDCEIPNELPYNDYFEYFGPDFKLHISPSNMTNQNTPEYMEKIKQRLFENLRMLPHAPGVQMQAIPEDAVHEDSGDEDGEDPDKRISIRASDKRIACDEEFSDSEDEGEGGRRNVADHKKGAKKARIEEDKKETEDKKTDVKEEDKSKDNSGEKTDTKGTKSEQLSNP

Take `Cn1cc(-c2ccc(C(=O)Nc3cc(-c4cccs4)ccc3N)nc2)nn1` [Compound I-001]: the IC50 came to 56 nM.

For `Cn1cc(-c2ccc(C(=O)Nc3cc(-c4ccco4)ccc3N)nc2)nn1` [Compound I-002], the concentration for half-maximal inhibition (IC50) was determined as 54 nM. With `Cn1cc(-c2ccc(C(=O)Nc3cc(-c4cnco4)ccc3N)nc2)cn1` [Compound I-004], the IC50 stood at 64 nM. `Cn1cc(-c2ccc(C(=O)Nc3cc(-c4ccco4)ccc3N)nc2)cn1` [Compound I-005]: the 50% inhibitory concentration (IC50) is 220 nM. Next, `Cn1cc(-c2cnc(C(=O)Nc3cc(-c4cccs4)ccc3N)cn2)cn1` [Compound I-007]: 96 nM; `Cn1cc(-c2cnc(C(=O)Nc3cc(-c4ccco4)ccc3N)cn2)cn1` [Compound I-008]: 120 nM; `Cn1cc(-c2cnc(C(=O)Nc3cc(-c4cnco4)ccc3N)cn2)cn1` [Compound I-009]: 61 nM. As for `Cn1cc(-c2cnc(C(=O)Nc3cc(-c4cncs4)ccc3N)cn2)cn1` [Compound I-010], the half-maximal inhibitory concentration (IC50) is 31 nM.

For `Cn1cc(-c2ccc(C(=O)Nc3cc(-c4cnco4)ccc3N)nc2)nn1` [Compound I-011], the IC50 is 57 nM. Consider `Cn1cc(-c2cnc(C(=O)Nc3cc(-c4cnco4)ccc3N)cn2)nn1` [Compound I-012], for which the IC50 came out at 94 nM. For the molecule `Cn1cc(-c2cnc(C(=O)Nc3cc(-n4cccc4)ccc3N)cn2)cn1` [Compound I-013], the half-maximal inhibitory concentration (IC50) was 100 nM.

`Cn1cc(-c2cnc(C(=O)Nc3cc(-c4cccs4)ccc3N)nc2)cn1` [Compound I-014]: the IC50 is 200 nM. The value for `Cn1cc(-c2cnc(C(=O)Nc3cc(-c4cccs4)ccc3N)c(F)c2)cn1` [Compound I-016] was 160 nM. As for `Nc1ccc(-c2cncs2)cc1NC(=O)c1ccc(C(F)(F)F)cn1` [Compound I-020], the IC50 came to 260 nM. Consider `Nc1ccc(-c2cncs2)cc1NC(=O)c1ccc(OC(F)(F)F)cn1` [Compound I-021], for which the IC50 was 220 nM. In the case of `Cn1cc(-c2cnc(C(=O)Nc3nc(-c4cccs4)ccc3N)c(F)c2)cn1` [Compound I-022], the IC50 came out at 470 nM. For the molecule `Cn1cc(-c2ccc(C(=O)Nc3nc(-n4cccc4)ccc3N)nc2)cn1` [Compound I-025], the IC50 is 370 nM.

For `Cn1cc(-c2cnc(C(=O)Nc3nc(-c4ccco4)ccc3N)cn2)cn1` [Compound I-026], the half-maximal inhibitory concentration (IC50) stood at 320 nM. In the case of `Cn1cc(-c2ccc(C(=O)Nc3cc(-c4cccs4)ccc3N)nn2)cn1` [Compound I-027], the 50% inhibitory concentration (IC50) turned out to be 130 nM. Turning to `Cc1ncc(-c2ccc(N)c(NC(=O)c3ccc(-c4cnn(C)c4)cn3)c2)s1` [Compound I-032], the IC50 was determined as 140 nM. Regarding `Cn1cc(-c2ccc(C(=O)Nc3cc(-c4ccc(F)nc4)ccc3N)nc2)cn1` [Compound I-033], the IC50 is 88 nM. Regarding `Cn1cc(-c2ccc(C(=O)Nc3nc(-c4cccs4)ccc3N)nc2)nn1` [Compound I-034], the IC50 was determined as 280 nM.

For `Cn1cc(-c2ccc(C(=O)Nc3cc(-c4cnn(C)c4)ccc3N)nc2)cn1` [Compound I-037], the IC50 worked out at 180 nM. As to `Cn1cc(-c2cnc(C(=O)Nc3nc(-c4ccccc4)ccc3N)cn2)cn1` [Compound I-039], the IC50 was determined as 420 nM.

`Cn1cc(-c2ccc(C(=O)Nc3cc(-c4ccc(F)nc4)ccc3N)nc2)nn1` [Compound I-040]: the IC50 is 63 nM. Turning to `Cn1cc(-c2ccc(C(=O)Nc3cc(-c4cncs4)ccc3N)nc2)nn1` [Compound I-046], the IC50 amounted to 54 nM. The value for `Cn1cc(-c2ccc(C(=O)Nc3cc(-c4cncs4)ccc3N)nc2)nn1` [Compound I-047] was 30 nM; that for `Cn1cc(-c2ccc(C(=O)Nc3cc(-n4cccc4)ccc3N)nc2)cn1` [Compound I-056] was 120 nM. Take `CCCCc1ccc(C(=O)Nc2cc(-c3cncs3)ccc2N)nc1` [Compound I-057]: the IC50 was found to be 320 nM. In the case of `C#Cc1ccc(C(=O)Nc2cc(-c3cncs3)ccc2N)nc1` [Compound I-058], the IC50 amounted to 130 nM. Take `Nc1ccc(-c2cncs2)cc1NC(=O)c1cc2ccncc2cn1` [Compound I-060]: the IC50 turned out to be 47 nM. As to `Cn1cc(-c2ccc(C(=O)Nc3nc(-c4cncs4)ccc3N)nc2)cn1` [Compound I-061], the IC50 came to 210 nM. The value for `Cn1cc(-c2ccc(C(=O)Nc3cc(-n4cccn4)ccc3N)nc2)cn1` [Compound I-063] was 270 nM.

For `Nc1ccc(-c2cncs2)cc1NC(=O)c1cnc2[nH]ccc2n1` [Compound I-064], the concentration for half-maximal inhibition (IC50) is 96 nM. For the molecule `Nc1ccc(-c2cncs2)cc1NC(=O)c1ccc2nccn2n1` [Compound I-065], the IC50 stood at 330 nM. As for `Nc1ccc(-c2cncs2)cc1NC(=O)c1cc2ccccc2cn1` [Compound I-066], the IC50 was 110 nM. In the case of `Nc1ccc(-c2cncs2)cc1NC(=O)c1cc2c(cn1)OCCC2` [Compound I-067], the IC50 came out at 120 nM. With `Nc1ccc(-c2ccc(F)nc2)cc1NC(=O)c1cc2ccncc2cn1` [Compound I-068], the IC50 was determined as 140 nM. The value for `N#Cc1ccc(C(=O)Nc2cc(-c3cncs3)ccc2N)nc1` [Compound I-069] was 160 nM.

Turning to `Nc1ccc(-c2cncs2)cc1NC(=O)c1cc2c(cn1)OC(F)(F)CO2` [Compound I-070], the IC50 was 240 nM. Take `Nc1ccc(-c2cncs2)cc1NC(=O)c1ccc(Cl)cn1` [Compound I-071]: the IC50 was 160 nM. For `Nc1ccc(-c2cncs2)cc1NC(=O)c1cc(Cl)c(Cl)cn1` [Compound I-072], the IC50 is 480 nM. Regarding `Nc1ccc(-c2cncs2)cc1NC(=O)c1cc2c(cn1)OCCO2` [Compound I-073], the IC50 stood at 120 nM.

Consider `Nc1ccc(-c2cncs2)cc1NC(=O)c1cc2c(cn1)OC(F)(F)O2` [Compound I-074], for which the IC50 was determined as 270 nM. Consider `Cn1cc(-c2cnc(C(=O)Nc3nc(-c4ccc(F)nc4)ccc3N)cn2)cn1` [Compound I-079], for which the 50% inhibitory concentration (IC50) turned out to be 480 nM. Consider `Nc1ccc(-c2cncs2)cc1NC(=O)c1ccc2[nH]ccc2n1` [Compound I-081], for which the half-inhibitory concentration (IC50) was determined as 280 nM.

For the molecule `Nc1ccc(-c2cncs2)cc1NC(=O)c1ccc2c(n1)CCCC2` [Compound I-082], the concentration for half-maximal inhibition (IC50) was 340 nM.

On to `Nc1ccc(-c2cncs2)cc1NC(=O)c1ccc2c(n1)CCC2` [Compound I-083], for which the IC50 worked out at 160 nM. Regarding `Cn1cc(-c2ccc(C(=O)Nc3cc(-c4ccon4)ccc3N)nc2)cn1` [Compound I-084], the IC50 is 310 nM. The value for `Nc1ccc(-c2ccc(F)nc2)cc1NC(=O)c1cnc2[nH]ccc2n1` [Compound I-086] was 180 nM; that for `Nc1ccc(-c2ccc(F)nc2)cc1NC(=O)c1ccc(F)cn1` [Compound I-089] was 400 nM.

In the case of `Nc1ccc(-c2ccc(F)nc2)cc1NC(=O)c1ccc(Cl)cn1` [Compound I-090], the IC50 was 290 nM. The value for `CC#Cc1ccc(C(=O)Nc2cc(-c3cncs3)ccc2N)nc1` [Compound I-094] was 230 nM. Regarding `C#Cc1ccc(C(=O)Nc2cc(-c3ccc(F)nc3)ccc2N)nc1` [Compound I-096], the half-maximal inhibitory concentration (IC50) turned out to be 270 nM. As for `Nc1ccc(-c2ccc(F)nc2)cc1NC(=O)c1cc2c(cn1)OCCO2` [Compound I-097], the IC50 came out at 160 nM.

Regarding `Cn1cc(-c2ccc(N)c(NC(=O)c3cc4c(cn3)OCCO4)c2)cn1` [Compound I-098], the IC50 was 240 nM. For the molecule `COc1cnc(C(=O)Nc2cc(-c3cncs3)ccc2N)cn1` [Compound I-099], the IC50 amounted to 72 nM.

As to `Nc1ccc(-c2cncs2)cc1NC(=O)c1cnc(OCF)cn1` [Compound I-100], the IC50 came out at 100 nM.

As for `Nc1ccc(-c2cncs2)cc1NC(=O)c1ccc(C2CC2)cn1` [Compound I-101], the IC50 is 92 nM. As to `Nc1ccc(-c2ccc(F)nc2)cc1NC(=O)c1ccc(CN2CCCC2=O)cn1` [Compound I-104], the half-inhibitory concentration (IC50) turned out to be 85 nM. As to `Nc1ccc(-c2ccc(F)nc2)cc1NC(=O)c1ccc(CN2CCCCC2=O)cn1` [Compound I-108], the IC50 was 84 nM. For the molecule `N#Cc1ccnc(C(=O)Nc2cc(-c3cncs3)ccc2N)c1` [Compound I-109], the IC50 was found to be 190 nM.

Take `Nc1ccc(-c2ccc(F)nc2)cc1NC(=O)c1ccc(C2CC2)cn1` [Compound I-111]: the 50% inhibitory concentration (IC50) stood at 150 nM. Next, `Nc1ccc(-c2ccc(F)nc2)cc1NC(=O)c1ccccn1` [Compound I-113]: 320 nM. On to `Nc1ccc(-c2ccc(F)nc2)cc1NC(=O)c1cnccn1` [Compound I-114], for which the IC50 was 260 nM. As for `Nc1ccc(-c2ccc(F)nc2)cc1NC(=O)c1cccnn1` [Compound I-115], the IC50 was found to be 440 nM. Next, `COc1cnc(C(=O)Nc2cc(-c3ccc(F)nc3)ccc2N)cn1` [Compound I-120]: 240 nM.

By IC50 is commonly meant the point on the concentration scale where inhibition reaches its midpoint.
